Assays:
[1] = system: BGC-823 cells (human gastric carcinoma cells); assay: MTT antiproliferative test on BGC-823 cells; assay type: cell-based; settings: 96 h, 4 days culture, BGC-823 human gastric carcinoma cells, read-out: BGC-823 cell IC50
Description: (§1) Test method: The cells of log phase are cultivated in the culture plate with 96 pores, and each pore contains 100 μL of solution (including 1000-1200 tumor cells). The next day, different concentrations of the present compound are added to the treatment groups, each compound contains 4 to 5 dosage groups, and each dosage group contains at least 3 parallel pores. The solvent with an equivalent volume of the said compound is added to the control groups. The said culture plate is then placed in a 5% CO2 incubator, cultured at 37° C., and the culture solution is discharged 4 days later. Next, 200 μL of the 0.2% MTT solution (RPMI1640 preparation) is added to each pore and incubated at 37° C. for 4 hours; the obtained supernatant is discharged; and 150 μL of DMSO is added to each pore so as to dissolve formazane particles. After slightly shaking the mixture, the optical density (OD) is measured by the ELIASA in the conditions of a resulting reference wavelength 450 nm and a detection wavelength 570 nm. The tumor cells treated with solvent are used as control groups, and the inhibition rate of the drugs against the tumor cells and IC50 are calculated according to the following equation. […] The MCF-7 cells are human breast cancer cells and the BGC-823 cells are human gastric carcinoma cells.

[2] = system: MCF-7 cells (human breast cancer cells); assay: MTT antiproliferative test on MCF-7 cells; assay type: cell-based; settings: MCF7, 96 h, 4 days culture, MCF-7 human breast cancer cells, read-out: MCF-7 cell IC50
Description: as §1

With CC(C)=CCC[C@]1(C)C=Cc2c(O)c3c(c(CC=C(C)C)c2O1)O[C@]12C(=C[C@@H]4C[C@H]1C(C)(C)O[C@@]2(C/C=C(/C)C(=O)O)C4=O)C3=O [Gambogic acid, gambogic acid, reference compound] the IC50 [1] was 2.35 µM and the IC50 [2] was 2.19 µM.

Compound CC(C)=CCC12OC(C)(C)C3CC(C=C4C(=O)c5cc(O)ccc5OC431)C2=O (stereo not drawn) has a melting point of 158 to 159 °C.

CC(C)=CCc1c(O)ccc2c1OC13C(=CC4CC1C(C)(C)OC3(CC=C(C)C)C4=O)C2=O (stereo not drawn) [CPUY I-5, 3,3a,4,5-tetrahydro-3,3-dimethyl-1,11-bis(3-methyl-2-butenyl)-10-hydroxyl-1,5-dimethylene-1H,7H-furan[3,4-d]xanthene-7,13-diketone] gave an IC50 [1] of 15 µM, a melting point of 158 to 160 °C and an IC50 [2] of 5.79 µM.

CC(C)=CCC12OC(C)(C)C3CC(C=C4C(=O)c5ccc(O)cc5OC431)C2=O (stereo not drawn) [CPUY I-2, 3,3a,4,5-tetrahydro-3,3-dimethyl-1-(3-methyl-2-butenyl)-10-hydroxyl-1,5-dimethylene-1H,7H-furan[3,4-d]xanthene-7,13-diketone] showed an IC50 [1] of 17.6 µM, a melting point of 197 to 199 °C and an IC50 [2] of 12.4 µM.

For CC(C)=CCc1cc2c(cc1O)C(=O)C1=CC3C4CC1(O2)C(=O)C3(CC=C(C)C)OC4(C)C (stereo not drawn) [CPUY I-7, 1,3a,4,11a-tetrahydro-3,3-dimethyl-1,7-bis(3-methyl-2-butenyl)-8-hydroxyl-3H-1,4-a-dimethylene-10H-furan[3,4-b]xanthene-10,12-diketone], the IC50 [1] was 18.2 µM, the melting point was 148 to 150 °C and the IC50 [2] was 10.9 µM.

For CC(C)=CCc1c(O)ccc2c1C(=O)C1=CC3CC4C(C)(C)OC(CC=C(C)C)(C3=O)C14O2 (stereo not drawn) [CPUY I-6, 3,3a,4,5-tetrahydro-3,3-dimethyl-1,8-bis(3-methyl-2-butenyl)-9-hydroxyl-1,5-dimethylene-1H,7H-furan[3,4-d]xanthene-7,13-diketone], the IC50 [1] was 21.7 µM, the melting point was 138 to 139 °C and the IC50 [2] was 11.9 µM.

Compound CC(C)=CCC12OC(C)(C)C3CC(C=C4C(=O)c5cccc(O)c5OC431)C2=O (stereo not drawn) has a melting point of 203 to 205 °C.

CC(C)=CCC12OC(C)(C)C3CC(C=C4C(=O)c5c(O)cccc5OC431)C2=O (stereo not drawn) [CPUY I-1, 3,3a,4,5-tetrahydro-3,3-dimethyl-1-(3-methyl-2-butenyl)-8-hydroxyl-1,5-dimethylene-1H,7H-furan[3,4-d]xanthene-7,13-diketone] gave an IC50 [1] of 3.59 µM and an IC50 [2] of 9.16 µM.

In the case of CC(C)=CCc1ccc2c(c1O)OC13C(=CC4CC1C(C)(C)OC3(CC=C(C)C)C4=O)C2=O (stereo not drawn) [CPUY I-8, 3,3a,4,5-tetrahydro-3,3-dimethyl-1,10-bis(3-methyl-2-butenyl)-11-hydroxyl-1,5-dimeth ylene-1H,7H-furan[3,4-d]xanthene-7,13-diketone], the IC50 [1] is reported as 11.3 µM, the melting point is reported as 157 to 158 °C and the IC50 [2] is reported as 9.06 µM.

Reference: US8501803B2, “Garcinia derivative, its preparing method and medicinal use” (China Pharmaceutical University, priority 2010, dated 2013)
